Test system: BxPC-3 human pancreatic cancer cells
Assay: subG1 cell cycle FACS apoptosis assay, BxPC-3 cells
Assay type: cell-based
Conditions: BxPC-3, Protocol A, about 24 hours, FIG. 10
Procedure: To transfer adherent cells (A375 and BxPC-3 cells) after culture, cells are washed twice with PBS. To detach the cells, the enzyme biotase is used according to the manufacturer's instructions. For this purpose, after washing with PBS, the cells are mixed with biotase (5 ml of biotase solution per 75 cm^2 surface of the cell culture bottles) and incubated for 5 min at 37 degrees Celsius, and the biotase is separated by centrifugation. Cells cultivated in suspension (MEC-1 and lymphocytes) were transferred by dilution. The cells are suspended in culture medium and counted, each time 1.5×10^5 cells/cm^2 are seeded in 48-well plates and cultured for between 1.5 and 24 hours at 37 degrees Celsius, 5% CO2. Peptides are pre-diluted from stock solution with culture medium and 200 μl of peptide solution added so that final concentrations of 30 to 500 μM peptide are present in at most 1% (v/v) DMSO. As control solutions, culture medium without peptide (DMSO-containing) in culture medium or etoposide solution is added. After incubating the cells for several hours, the cell supernatant is transferred to a FACS tube for each batch and, after washing the cells with PBS, the wash solution is added. Then the cells are incubated with 200 μl of biotase solution for 10 min, 37° C., the cells with the biotase are also transferred to the FACS tube and the cells are collected by centrifugation for 5 min. The cell pellet is suspended in 500 μl of serum-free culture medium, then 1.5 ml of cold 80% ethanol (ethanol/PBS-80/20, v/v, stored at −20° C.) is added, the FACS tubes sealed and stored at −20 degrees Celsius for 15 to 18 h. Thereafter, the cells are centrifuged for 5 minutes at 120 g, suspended after removal of the supernatant in 2 ml PBS and incubated at 37 degrees Celsius for 30 minutes. After re-centrifugation, the cells are suspended in 0.5 ml DAPI solution and incubated for 15 min at 20 degrees Celsius in the dark. Thereafter, the cells are stored dark for a maximum of four hours in an ice bath, followed by the FACS analysis.
The adherent cells (A375 and BxPC-3 cells and MDA-MB-231, respectively) are seeded 24 hours before induction in 6-well plates in culture medium. For this, the cells are washed with PBS, then incubated with trypsin/EDTA solution at 37 degrees Celsius and suspended in culture medium. The 6-well plates are loaded with 1×10^5 cells/cm^2 in culture medium and the cells incubated for 24 hours until induction with the peptides in the incubator. For induction, the peptides are diluted in fresh culture medium. As control solutions, culture medium without peptide (DMSO-containing) in culture medium or etoposide solution is added. The cells are washed with PBS. Thereafter the peptide solution in culture medium is added to the cells. After incubation in the incubator (37° C., 5% CO2) between 1.5 and 24 hours, the cell supernatant is transferred to 15 ml centrifuge tubes, the cells are washed with 0.75 ml PBS and then with 0.5 ml versene solution. Both washings are combined with the cell supernatant. The cells are then added with 0.5 ml of trypsin/EDTA solution and incubated at about 37° C. for at most 10 minutes until the cells detached. The cell suspension is combined with cell supernatant and washings and centrifuged at about 130 g for about 10 minutes. After removing the supernatant, the cells are suspended in 400 μl of cell culture medium (without serum) and mixed with 1.2 ml of 80% ethanol/20% PBS (v/v) and incubated for 1 to 7 days at −20° C. For analysis, the cells are centrifuged at 130 g for 10 min, suspended in 2 ml PBS, and centrifuged again for 5 min. The cells are suspended in 700 μl PI buffer and incubated for 10 min at 37° C. in the dark. Subsequently, the cells are stored dark for a maximum of four hours in an ice bath, then the FACS analysis is performed. […]

Substance	apoptosis efficiency (subG1), comparison in words (50 μM)	apoptosis efficiency (subG1), comparison in words (100 μM)	apoptosis efficiency (subG1), comparison in words (200 μM)	apoptosis efficiency (subG1) in view of Peptide SEQ C1 (any concentration (50, 100, 200 μM))
k-s-q-t-v-k-k-w-m-v-v-y-f-r-k [SEQID No 29]	slight improvement over peptides SEQID NO 27 and SEQID NO 37	higher efficiency at 100 μM in view of Peptides SEQID NO 27, SEQID NO 37 and SEQID NO 36		
k-s-q-t-v-q-k-w-m-v-v-y-f-r-k [SEQID No 36]	slight improvement over peptides SEQID NO 27 and SEQID NO 37		clear improvement over peptides SEQID NO 27 and SEQID NO 29	at least fourfold
s-q-t-v-q-k-w-m-v-v-y-f-r-k [SEQID No 37]			clear improvement over peptides SEQID NO 27 and SEQID NO 29	

Reference: US20220160812A1, “A PHARMACEUTICALLY ACTIVE SUBSTANCE” (Cytopharma GmbH, priority 2019, published 2022)
